Where a SMILES comes first, the peptide text is derived from it.
Molecular target: ERAP2 (Homo sapiens, UniProt Q6P179)
Experiment: biochemical
Procedure: Substrate hydrolysis was assessed by measuring the fluorescence of free AMC at 14-s intervals, at 380nm and 460 nm excitation and emission wavelengths, respectively, in a Fluostar Optima Multiwave Plate Reader (BMG Labtec, Ortenberg, Germany).

ERAP2, sequence (Q6P179 whole entry): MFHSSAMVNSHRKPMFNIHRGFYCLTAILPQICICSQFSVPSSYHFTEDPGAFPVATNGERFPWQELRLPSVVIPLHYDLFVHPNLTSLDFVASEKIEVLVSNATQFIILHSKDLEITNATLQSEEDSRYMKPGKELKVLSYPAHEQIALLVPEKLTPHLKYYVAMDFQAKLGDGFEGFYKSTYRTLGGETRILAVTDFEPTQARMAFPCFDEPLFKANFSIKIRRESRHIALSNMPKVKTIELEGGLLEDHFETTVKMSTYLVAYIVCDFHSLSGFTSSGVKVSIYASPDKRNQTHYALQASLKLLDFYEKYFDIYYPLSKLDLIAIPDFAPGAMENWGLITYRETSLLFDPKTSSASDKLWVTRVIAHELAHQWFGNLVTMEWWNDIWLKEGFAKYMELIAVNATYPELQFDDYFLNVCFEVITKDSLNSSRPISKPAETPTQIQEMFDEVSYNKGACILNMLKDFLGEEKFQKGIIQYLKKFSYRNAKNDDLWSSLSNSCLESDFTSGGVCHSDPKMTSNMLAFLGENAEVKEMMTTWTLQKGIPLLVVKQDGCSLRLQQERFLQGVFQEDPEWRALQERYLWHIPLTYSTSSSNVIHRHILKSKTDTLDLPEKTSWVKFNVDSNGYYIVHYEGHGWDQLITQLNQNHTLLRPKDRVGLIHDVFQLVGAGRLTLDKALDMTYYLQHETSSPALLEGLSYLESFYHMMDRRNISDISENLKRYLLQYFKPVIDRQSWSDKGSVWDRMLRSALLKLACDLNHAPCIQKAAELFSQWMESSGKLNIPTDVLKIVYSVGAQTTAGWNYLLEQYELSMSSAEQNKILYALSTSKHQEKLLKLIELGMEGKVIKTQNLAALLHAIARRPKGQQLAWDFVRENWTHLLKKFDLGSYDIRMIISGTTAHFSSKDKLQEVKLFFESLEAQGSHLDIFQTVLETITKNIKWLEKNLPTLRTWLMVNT

Structure (SMILES)	IC50 [µM]
CC[C@H](C)[C@H](NC(=O)[C@H](CCC(N)=O)NC(=O)[C@H](Cc1ccccc1)NC(=O)[C@@H](NC(=O)[C@H](CC(=O)O)NC(=O)CNC(=O)[C@H](Cc1ccc(O)cc1)NC(=O)[C@H](CCCNC(=N)N)NC(=O)[C@H](CCCNC(=N)N)NC(=O)[C@H](C)NC(=O)[C@@H](N)CC(C)C)C(C)C)C(=O)O (H-LARRYGDVFQI-OH)	18.6
CC(C)C[C@H](NC(=O)[C@H](CCCCN)NC(=O)[C@H](CC(=O)O)NC(=O)CNC(=O)[C@H](Cc1ccccc1)NC(=O)[C@H](CCCNC(=N)N)NC(=O)[C@H](CCCNC(=N)N)NC(=O)[C@H](CC(C)C)NC(=O)[C@@H](N)CCC(N)=O)C(=O)N[C@@H](CC(N)=O)C(=O)N[C@@H](Cc1ccccc1)C(=O)O (H-QLRRFGDKLNF-OH)	13.2
CC(C)C[C@H](NC(=O)[C@H](Cc1ccc(O)cc1)NC(=O)[C@@H]1CCCN1C(=O)[C@H](CO)NC(=O)[C@H](CCCCN)NC(=O)CNC(=O)[C@H](Cc1ccc(O)cc1)NC(=O)[C@H](CCCNC(=N)N)NC(=O)[C@H](C)NC(=O)[C@H](CC(C)C)NC(=O)[C@@H](N)CO)C(=O)N[C@@H](Cc1ccc(O)cc1)C(=O)O (H-SLARYGKSPYLY-OH)	2.88

— publication PMC9774488, “The ER Aminopeptidases, ERAP1 and ERAP2, synergize to self-modulate their respective activities” (Frontiers in Immunology, 2022)
